Where two headings read alike, the source gives them in different places.
Key:
MDA-MB-231/ATCC = assay: SRB 48 h growth assay, Breast MDA-MB-231/ATCC; type: cell-based, human
HL-60(TB) = assay: SRB 48 h growth assay, Leukemia HL-60(TB); type: cell-based, human
SK-MEL-5 = assay: SRB 48 h growth assay, Melanoma SK-MEL-5; type: cell-based, human; details: SK-MEL-5, Melanoma
MCF7 = assay: SRB 48 h growth assay, Breast MCF7; type: cell-based, human
M14 = assay: SRB 48 h growth assay, Melanoma M14; type: cell-based, human
HS578T = assay: SRB 48 h growth assay, Breast HS578T; type: cell-based, human
TK-10 = assay: SRB 48 h growth assay, Renal TK-10; type: cell-based, human; details: TK-10, Renal
SNB-19 = assay: SRB 48 h growth assay, CNS SNB-19; type: cell-based, human; details: SNB-19, CNS
BT-549 = assay: SRB 48 h growth assay, Breast BT-549; type: cell-based, human; details: BT-549, Breast
UACC-62 = assay: SRB 48 h growth assay, Melanoma UACC-62; type: cell-based, human; details: UACC-62, Melanoma
A549/ATCC = assay: SRB 48 h growth assay, Non-small Cell Lung A549/ATCC; type: cell-based, human
PC-3 = assay: SRB 48 h growth assay, Prostate PC-3; type: cell-based, human; details: PC-3, Prostate
CCRF-CEM = assay: SRB 48 h growth assay, Leukemia CCRF-CEM; type: cell-based, human
LOX IMVI = assay: SRB 48 h growth assay, Melanoma LOX IMVI; type: cell-based, human
RPMI-8226 = assay: SRB 48 h growth assay, Leukemia RPMI-8226; type: cell-based, human; details: RPMI-8226, Leukemia
[1] = in vitro anticancer activity, non-small cell lung panel; type: cell-based; details: Homo sapiens; nine non-small cell lung cancer cell lines, exposure at least 48 h; read-out: GI50, range over panel
SNB-75 = assay: SRB 48 h growth assay, CNS SNB-75; type: cell-based, human; details: SNB-75, CNS
MDA-MB-435 = assay: SRB 48 h growth assay, Melanoma MDA-MB-435; type: cell-based, human; details: MDA-MB-435, Melanoma
OVCAR-8 = assay: SRB 48 h growth assay, Ovarian OVCAR-8; type: cell-based, human; details: OVCAR-8, Ovarian
[2] = test system: two prostate cancer cell line (PC-3, DU-145); assay: in vitro anticancer activity, prostate panel; type: cell-based; details: Homo sapiens; two prostate cancer cell lines, exposure at least 48 h; read-out: GI50, range over panel
HCT-116 = assay: SRB 48 h growth assay, Colon HCT-116; type: cell-based, human; details: HCT-116, Colon
[3] = in vitro anticancer activity, melanoma panel; type: cell-based; details: Homo sapiens; nine melanoma cell lines, exposure at least 48 h; read-out: GI50, range over panel
NCI-H23 = assay: SRB 48 h growth assay, Non-small Cell Lung NCI-H23; type: cell-based, human; details: for GI50: Homo sapiens
KM12 = assay: SRB 48 h growth assay, Colon KM12; type: cell-based, human
[4] = test system: six leukemia cancer cell lines (CCRF-CEM, HL-60, K-562, MOLT-4, SR and RPMI-8226); assay: in vitro anticancer activity, leukemia panel; type: cell-based; details: Homo sapiens, exposure at least 48 h, read-out: GI50, range over panel
RXF393 = assay: SRB 48 h growth assay, Renal RXF393; type: cell-based, human
NCI-H522 = assay: SRB 48 h growth assay, Non-small Cell Lung NCI-H522; type: cell-based, human
SW-620 = assay: SRB 48 h growth assay, Colon SW-620; type: cell-based, human; details: SW-620, Colon
[5] = Homo sapiens, read-out: Growth Inhibition GI50
[6] = Homo sapiens, read-out: Log10 GI50 (converted)
[7] = Homo sapiens, read-out: Log10 LC50 (converted)

## C#Cc1ccc(-n2c(/C=C/c3cc(OC)c(OC)c(OC)c3)nc3ncccc3c2=O)cc1 [4q, (E)-3-(4-Ethynylphenyl)-2-(3,4,5-trimethoxystyryl)pyrido[2,3-d]pyrimidin-4(3H)-one]
MDA-MB-231/ATCC
  Log10 TGI50: >−4.00
MDA-MB-231/ATCC; [5]
  GI50: 5.53 µM
MDA-MB-231/ATCC; [6]
  GI50: 5.5 µM
MDA-MB-231/ATCC; [7]
  CC50: > 100 µM
HL-60(TB)
  Log10 TGI50: −4.59
HL-60(TB); [5]
  GI50: 3.84 µM
HL-60(TB); [6]
  GI50: 3.8 µM
HL-60(TB); [7]
  CC50: > 100 µM
SK-MEL-5; [5]
  GI50: 1.78 µM
SK-MEL-5; [6]
  GI50: 1.78 µM
SK-MEL-5; [7]
  CC50: 18.2 µM
SK-MEL-5
  Log10 TGI50: −5.36
MCF7
  Log10 TGI50: >−4.00
MCF7; [5]
  GI50: 3.17 µM
MCF7; [6]
  GI50: 3.16 µM
MCF7; [7]
  CC50: > 100 µM
M14
  Log10 TGI50: ->−4.00
M14; [5]
  GI50: 4.93 µM
M14; [6]
  GI50: 4.9 µM
M14; [7]
  CC50: > 100 µM
HS578T
  Log10 TGI50: −4.64
HS578T; Homo sapiens, Hs-578T, read-out: Growth Inhibition GI50
  GI50: 3.67 µM
HS578T; Homo sapiens, Hs-578T, read-out: Log10 GI50 (converted)
  GI50: 3.63 µM
HS578T; Homo sapiens, Hs-578T, read-out: Log10 LC50 (converted)
  CC50: > 100 µM
TK-10; [5]
  GI50: 17.3 µM
TK-10; [6]
  GI50: 17.4 µM
TK-10; [7]
  CC50: > 100 µM
TK-10
  Log10 TGI50: −4.20
SNB-19; [5]
  GI50: 16.2 µM
SNB-19; [6]
  GI50: 16.2 µM
SNB-19; [7]
  CC50: > 100 µM
SNB-19
  Log10 TGI50: >−4.00
BT-549
  Log10 TGI50: −5.00
BT-549; [5]
  GI50: 2.99 µM
BT-549; [6]
  GI50: 3.02 µM
BT-549; [7]
  CC50: > 100 µM
UACC-62; [5]
  GI50: 6.9 µM
UACC-62; [6]
  GI50: 6.92 µM
UACC-62; [7]
  CC50: > 100 µM
UACC-62
  Log10 TGI50: >−4.00
A549/ATCC
  Log10 TGI50: >−4.00
A549/ATCC; [5]
  GI50: 5.65 µM
A549/ATCC; [6]
  GI50: 5.62 µM
A549/ATCC; [7]
  CC50: > 100 µM
PC-3; [5]
  GI50: 3.96 µM
PC-3; [6]
  GI50: 3.98 µM
PC-3; [7]
  CC50: > 100 µM
PC-3
  Log10 TGI50: >−4.00
CCRF-CEM
  Log10 TGI50: >−4.00
CCRF-CEM; Homo sapiens, CCKF-CEM, read-out: Log10 LC50 (converted)
  CC50: > 100 µM
CCRF-CEM; [5]
  GI50: 4.9 µM
CCRF-CEM; [6]
  GI50: 4.9 µM
LOX IMVI
  Log10 TGI50: −4.19
LOX IMVI; [5]
  GI50: 4.61 µM
LOX IMVI; [6]
  GI50: 4.57 µM
LOX IMVI; [7]
  CC50: > 100 µM
RPMI-8226; [5]
  GI50: 3.6 µM
RPMI-8226; [6]
  GI50: 3.63 µM
RPMI-8226; [7]
  CC50: > 100 µM
RPMI-8226
  Log10 TGI50: >−4.00
[1]
  GI50: 1.32 to 3.9 µM
SNB-75; [5]
  GI50: 3.88 µM
SNB-75; [6]
  GI50: 3.89 µM
SNB-75; [7]
  CC50: > 100 µM
SNB-75
  Log10 TGI50: >−4.00
MDA-MB-435; [5]
  GI50: 1.98 µM
MDA-MB-435; [6]
  GI50: 2 µM
MDA-MB-435; [7]
  CC50: 97.7 µM
MDA-MB-435
  Log10 TGI50: −5.27
OVCAR-8; [5]
  GI50: 9.67 µM
OVCAR-8; [6]
  GI50: 9.77 µM
OVCAR-8; [7]
  CC50: > 100 µM
OVCAR-8
  Log10 TGI50: >−4.00
[2]
  GI50: 1.96 to 3.76 µM
HCT-116
  Log10 TGI50: >−4.00
HCT-116; [5]
  GI50: 5.17 µM
HCT-116; [6]
  GI50: 5.13 µM
HCT-116; [7]
  CC50: > 100 µM
[3]
  GI50: 1.49 to 2.27 µM
NCI-H23
  Log10 TGI50: >−4.00
NCI-H23; read-out: Growth Inhibition GI50
  GI50: 17.3 µM
NCI-H23; read-out: Log10 GI50 (converted)
  GI50: 17.4 µM
KM12
  Log10 TGI50: −4.89
KM12; [5]
  GI50: 3.32 µM
KM12; [6]
  GI50: 3.31 µM
KM12; [7]
  CC50: > 100 µM
[4]
  GI50: 1.39 to 3.01 µM
RXF393
  Log10 TGI50: >−4.00
RXF393; Homo sapiens, RXF 393, read-out: Growth Inhibition GI50
  GI50: 7.04 µM
RXF393; Homo sapiens, RXF 393, read-out: Log10 GI50 (converted)
  GI50: 7.08 µM
RXF393; Homo sapiens, RXF 393, read-out: Log10 LC50 (converted)
  CC50: > 100 µM
NCI-H522
  Log10 TGI50: −5.20
NCI-H522; [5]
  GI50: 2.33 µM
NCI-H522; [6]
  GI50: 2.34 µM
NCI-H522; [7]
  CC50: 66.1 µM
SW-620; [5]
  GI50: 3.29 µM
SW-620; [6]
  GI50: 3.31 µM
SW-620; [7]
  CC50: > 100 µM
SW-620
  Log10 TGI50: −4.30
